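Results reflect a 48-hour exposure of cells in 96-well plates to compound at five concentrations. The concentration for 50% growth inhibition is given as GI50. TGI: concentration producing complete growth inhibition.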
Columns and labels:
Assay in all cases: NCI tumour cell line growth inhibition, 48 h
[1] = system: OVCAR-5 ovarian
[2] = system: SNB-75 CNS
[3] = system: TK-10 renal
[4] = system: SNB-19 CNS
[5] = system: HL-60(TB) leukemia
[6] = system: HT29 colon
[7] = system: OVCAR-4 ovarian
[8] = system: HOP-92 NSCLC
[9] = system: RPMI-8226 leukemia
[10] = system: UO-31 renal

Compound | GI50 [1] | TGI [1] | GI50 [2] | TGI [2] | GI50 [3] | TGI [3] | GI50 [4] | TGI [4] | GI50 [5] | TGI [5] | GI50 [6] | TGI [6] | GI50 [7] | TGI [7] | GI50 [8] | TGI [8] | GI50 [9] | TGI [9] | GI50 [10] | TGI [10]
COC(=O)c1cc2c3ccccc3n3c(=O)c4cc5cc(OC)c(N(S(=O)(=O)c6ccc(C)cc6)S(=O)(=O)c6ccc(C)cc6)cc5nc4c(n1)c23 | > 100 µM | > 100 µM | 3.99 µM | 20.4 µM | 8.92 µM | 23.6 µM | 5.8 µM | 32 µM | 74.7 µM | > 100 µM | > 100 µM | > 100 µM | > 100 µM | > 100 µM | 4.42 µM | 21.3 µM |  |  |  | 
COc1ccc(/C(=N\O)c2cc(OC)c(OC)c(OC)c2)c(OC)c1N |  |  |  |  | > 100 µM | > 100 µM | 5.61 µM | > 100 µM | 2.6 µM | 6.55 µM | 3.4 µM | > 100 µM | 12.4 µM | > 100 µM | > 100 µM | > 100 µM | 4.44 µM | > 100 µM | 8.14 µM | > 100 µM
Cn1c(=O)c2[nH]c(C3CC(=O)CC(c4nc5c([nH]4)c(=O)n(C)c(=O)n5C)N3)nc2n(C)c1=O (configuration not stated) |  | > 100 µM |  | > 100 µM |  | > 100 µM |  | > 100 µM |  | > 100 µM |  | > 100 µM |  | > 100 µM |  |  |  | > 100 µM |  | > 100 µM
N#CCC12CC=CCC1=C(O)C(=O)c1ccc(O)cc12 (configuration not stated) |  | > 100 µM |  | > 100 µM |  | > 100 µM |  | > 100 µM |  | > 100 µM |  | > 100 µM |  | > 100 µM |  |  |  | > 100 µM |  | > 100 µM
CC(C)(C)c1cn2cccc(C(=O)N3CCN(CC(=O)Nc4ccc(Cl)cc4C(=O)c4ccccc4Cl)CC3)c2n1 | 16.1 µM | 44.9 µM | 12.8 µM | 90.2 µM | 16 µM | > 100 µM | 15.3 µM | 54.8 µM | > 100 µM | > 100 µM | 3.33 µM | 12.1 µM | 7.9 µM | > 100 µM |  |  | 2.67 µM | 7.26 µM | 22.4 µM | 74.7 µM
CN(C)CC(C)(C)C(/C=C/c1ccccc1)=N\Nc1ccccc1 |  | 2 µM |  | 46.8 µM |  | 3.48 µM |  | > 100 µM |  | 7.49 µM |  | 27.9 µM |  | 17.9 µM |  |  |  | 19.4 µM |  | 0.843 µM
Cc1cc(NS(=O)(=O)c2ccc(NC(=O)c3cccc4cc5ccccc5nc34)cc2)no1 |  | 57.3 µM |  | 41.9 µM |  | 89.3 µM |  | 19.3 µM |  |  |  | > 100 µM |  | 39.7 µM |  |  |  | 55.9 µM |  | 19.2 µM
O=C1SC(c2ccccc2)(c2ccccc2)c2ccccc21 |  |  |  | > 100 µM |  | > 100 µM |  | > 100 µM |  | > 100 µM |  | > 100 µM |  | > 100 µM |  |  |  | > 100 µM |  | > 100 µM
CCCC(=O)Nc1cc([N+](=O)[O-])c([N+](=O)[O-])cc1OC |  | > 100 µM |  | 30.3 µM |  | 31 µM |  | 30.7 µM |  | 39 µM |  | 29.3 µM |  | 33.6 µM |  |  |  | 68.4 µM |  | 3.13 µM
COCOCc1cc(OCc2ccccc2)c(OC)cc1Br |  | > 100 µM |  | > 100 µM |  | > 100 µM |  | > 100 µM |  |  |  | > 100 µM |  | > 100 µM |  | > 100 µM |  | > 100 µM |  | 
CC(=O)OC1(C#N)CC2OC1C1C2N1C(=O)OC(C)(C)C (configuration not stated) |  | > 100 µM |  | > 100 µM |  | > 100 µM |  | > 100 µM |  | > 100 µM |  |  |  | > 100 µM |  | > 100 µM |  | > 100 µM |  | > 100 µM
Cc1ccc(-c2nc3c(C(=O)NCCN(C)C)cccc3[nH]2)cc1 |  | 45.2 µM |  | 52.4 µM |  | 48.9 µM |  | > 100 µM |  | 34.2 µM |  | 80.1 µM |  | 85.3 µM |  | 32.4 µM |  |  |  | 22.9 µM
S=P1(c2ccccc2)Nc2ccc(Cl)cc2N1 (configuration not stated) |  | > 100 µM |  |  |  | > 100 µM |  | > 100 µM |  | 57.5 µM |  | > 100 µM |  | > 100 µM |  | 71.9 µM |  | > 100 µM |  | > 100 µM
Cn1cnc([N+](=O)[O-])c1SC1=NCCS1 |  | > 100 µM |  | > 100 µM |  | > 100 µM |  | > 100 µM |  |  |  | > 100 µM |  | > 100 µM |  | > 100 µM |  | > 100 µM |  | > 100 µM
C=CCC12CC(=O)C=C1CCC1(C2)OCCO1 (configuration not stated) |  |  |  | > 100 µM |  | > 100 µM |  | > 100 µM |  | > 100 µM |  |  |  | > 100 µM |  |  |  | > 100 µM |  | > 100 µM
N#Cc1c(NC(=O)c2cccc3ccccc23)sc2c1CCCC2 | 0.139 µM | > 25 µM | 0.0351 µM | > 25 µM |  |  | 0.107 µM | > 25 µM | 0.0545 µM |  | 0.0716 µM | 0.224 µM | 0.19 µM | > 25 µM | 0.457 µM | > 25 µM | 0.0872 µM | > 25 µM |  | 
COc1cc2c3c(n(CCCCNC(=O)OCC4c5ccccc5-c5ccccc54)c(=O)c2cc1OC)-c1cc2c(cc1C3=O)OCO2 | 17.4 µM | 51 µM | 28.9 µM | > 100 µM | 56.3 µM | > 100 µM | 81.6 µM | > 100 µM |  |  | 16.9 µM | > 100 µM | > 100 µM | > 100 µM | 1.49 µM | 9.69 µM |  |  | 49.3 µM | > 100 µM
O=C1Nc2ccccc2/C1=C/c1cn(C(=O)c2c(Cl)cccc2Cl)c2ccccc12 | 8.85 µM | 50.1 µM |  |  | 10.4 µM | 56 µM | 7.32 µM | > 100 µM | 2.46 µM | 11 µM | 3.92 µM | 14.9 µM |  |  | 1.54 µM | 6.33 µM | 3.38 µM | 23.6 µM | 1.14 µM | 7.5 µM
Cc1ccc(/C=C/C(=O)c2ccc(N)cc2)c(C)c1 | 7.32 µM | 27.9 µM | 2.01 µM | 7.45 µM | 3.13 µM | 11.9 µM | 14.4 µM | 27.8 µM | 2.89 µM | 11.4 µM |  |  | 2.09 µM | 5 µM | 1.96 µM | 4.43 µM | 2.12 µM | 4.99 µM | 1.83 µM | 3.92 µM
Cc1ccc(S(=O)(=O)N/N=C/c2oc(-c3ccccc3Cl)c(-c3ccccc3Cl)c2[N+](=O)[O-])cc1 |  | 34.2 µM |  |  |  | > 100 µM |  | 64 µM |  | 39.9 µM |  | > 100 µM |  | > 100 µM |  | 55 µM |  | 30.3 µM |  | 36 µM
